Measured values: patent US7892755B2, “Screening method” (Takeda Pharmaceutical Company Limited, priority 2004, dated 2011)

What was measured:
Type in all cases: cell-based
GPR35 [1] = molecular target: T1, GPR35 (Homo sapiens, UniProt Q9HC97, S294R); assay: MAPK phosphorylation (western blot, phospho-p44/42 MAP kinase) in human GPR35-expressed CHO cells; set-up: The resulting fragment (ca. 1 kb) was introduced into vector pAKKO-111; expressed in transfected cells; details: stimulation with 1-5 μM, 5 minutes
Procedure: The human GPR35-expressed CHO cells prepared in REFERENCE EXAMPLE 1 were incubated for 48 hours in a 12-well plate at 5×10^4 cells/well. MEMα (containing no nucleic acid) supplemented with 10% dialyzed FBS was used as a medium. After the medium was removed by suction, the cells were washed with 1 ml (×2) of serum-free medium and 500 μl of the serum-free medium was added thereto, followed by incubation at 37° C. for 16 hours. DNQX or NBQX was added to the cells at its optimum concentration, followed by incubation at 37° C. for 5 minutes. Immediately after the medium was removed by suction, 50 μl of Blue Loading Buffer (BioLabs) was added, the cells were lysed and taken up by pipetting. The cell lysate was destructed using a sonicator (Sono Cleaner; KAIJO DENKI) and then heat-treated at 95° C. for 5 minutes. Centrifugation (15,000 rpm, 4° C., 5 minutes) was made and the supernatant was used as a final sample.
After 10 μl of the sample was electrophoresed on 10% SDS-PAGE, the sample was transferred to a PVDF membrane by western blotting. The membrane was immersed in Block Ace (manufactured by Dainippon Pharmaceutical Co., Ltd.) and then shaken for an hour at room temperature. […] The membrane was applied to a fluorescence detector (LAS-1000; FUJI FILM) in accordance with the protocol of ECLplus Western Blotting System (Amersham Biosciences). […]

control CHO-K1 cells = assay: Changes in intracellular calcium levels on FLIPR, control CHO-K1 cells with only expression vector pAKKO-111H
Procedure: (§1) The CHO-K1 cell line (purchased from ATCC) was incubated in HAM F-12 medium (Invitrogen) supplemented with 10% fetal calf serum, unless otherwise indicated. On the day before transfection, the cells were inoculated at 4.5×10^5/10 cm^2 and incubated at 37° C. for 15 hours or more in a CO2 incubator adjusted to 5% CO2 concentration. Using Lipofectamine reagent (Invitrogen), transfection was performed according to modifications of the procedure attached to the reagent. When a 6-well plate was used as the incubator, the transfection was performed as follows. Two tubes each having a 1.5 ml volume were prepared and 100 μl each of Opti-MEM medium (Invitrogen) was dispensed in each tube. Next, 1 μg of the GPR35 expression vector obtained in REFERENCE EXAMPLE 1 and 0.5 μg of Gα15 expression vector (Guthrie cDNA Resource Center) were incorporated into one tube and in another tube, 6 μl of Lipofectamine reagent was charged, which were then mixed together. The mixture was settled for 20 minutes at room temperature. To the solution, 800 μl of Opti-MEM medium was added and the resulting solution mixture for transfection was added to the CHO-K1 cells, which had been previously washed with Opti-MEM medium. The cells were then incubated in a CO2 incubator for 6 hours. After the incubation, the cells were rinsed with PBS (Invitrogen), then detached by 0.05% trypsin-EDTA solution (Invitrogen) and recovered by centrifugal operation. The cells obtained were counted and diluted to 5×10^4 cells per 100 μl of the medium. The dilution was dispensed to a black walled 96-well plate (Costar) at 100 μl per well, followed by incubation overnight in a CO2 incubator. Various test samples were added to the CHO-K1 cells, in which the receptor was transiently expressed, by the transfection procedure described above, whereby changes in intracellular calcium levels were assayed on a FLIPR (Molecular Device).
(§2) To assay the changes in intracellular calcium levels on FLIPR, the following pretreatment was made. First, an assay buffer was prepared to add fluorescence dye Fluo-3AM (DOJIN) to the cells, or to wash the cells immediately before the FLIPR assay. A solution was prepared by adding 20 ml of 1M HEPES (pH 7.4) (DOJIN) to 1000 ml of HBSS (Invitrogen) (hereinafter HBSS/HEPES solution). To the solution, there was added 10 ml of a solution obtained by dissolving 710 mg of Probenecid (Sigma) in 5 ml of 1N NaOH and further adding 5 ml of HBSS/HEPES solution thereto and mixing them. The resulting solution was used as an assay buffer. Next, 50 μg of Fluo-3AM was dissolved in 21 μl of DMSO (DOJIN), and an equal volume of 20% pluronic acid (Molecular Probes) was added to the solution. After mixing them, the mixture was added to 10.6 ml of an assay buffer supplemented with 105 μl of fetal calf serum to give a fluorescence dye solution. After the medium for the transfected CHO-K1 cells was removed, the fluorescence dye solution was immediately dispensed at 100 μl each per well and incubation was carried out in a CO2 incubator for an hour to take up the fluorescence dye into the cells. The incubated cells were washed with the assay buffer described above and set on FLIPR. Test samples to be added to the receptor-expressed CHO-K1 cells were prepared using the assay buffer and simultaneously set on FLIPR.
After the pretreatment described above was made, changes in intracellular calcium levels by the addition of various test samples were assayed on FLIPR. […]

GPR35 [2] = molecular target: T1, GPR35; assay: Changes in intracellular calcium levels on FLIPR, CHO-K1 cells transiently co-expressing GPR35 and Gα15; set-up: The resulting fragment (ca. 1 kb) was introduced into vector pAKKO-111; expressed in transfected cells; host or cells: CHO-K1 (ATCC), transient transfection; details: Fluo-3AM, 0.3-10 μM shown for DNQX and ellagic acid (FIG. 1, 2)
Procedure: as §1, §2
After the pretreatment described above was made, changes in intracellular calcium levels by the addition of various test samples were assayed on FLIPR.

T1 sequence (Q9HC97 whole entry S294R, the tested form may be a part): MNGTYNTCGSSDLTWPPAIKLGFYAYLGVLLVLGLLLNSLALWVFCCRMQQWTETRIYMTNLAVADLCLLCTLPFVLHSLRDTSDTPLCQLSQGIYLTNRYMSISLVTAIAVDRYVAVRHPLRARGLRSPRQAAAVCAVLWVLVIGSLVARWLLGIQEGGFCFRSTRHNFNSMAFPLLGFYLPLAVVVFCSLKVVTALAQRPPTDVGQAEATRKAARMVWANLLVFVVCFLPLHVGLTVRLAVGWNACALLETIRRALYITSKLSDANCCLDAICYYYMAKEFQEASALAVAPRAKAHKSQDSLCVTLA

Row | Structure (SMILES) | level of phosphorylated MAP-kinase (GPR35 [1]) | response (increased intracellular calcium levels) in control cells (control CHO-K1 cells) | response (increased intracellular calcium levels) (GPR35 [2])
1 | O=C1N=c2cc([N+](=O)[O-])c([N+](=O)[O-])cc2=NC1=O [DNQX, 6,7-dinitroquinoxaline-2,3-dione] | enhanced | not observed | dose-dependently responded (increased intracellular calcium levels)
2 | NS(=O)(=O)c1cccc2c3c(cc([N+](=O)[O-])c12)=NC(=O)C(=O)N=3 [NBQX, 6-nitro-7-sulfamoylbenzo[f]quinoxaline-2,3-dione] | enhanced | not observed | dose-dependently responded (increased intracellular calcium levels)
